Test results: paper PMC4077706, “Lifting the Mask: Identification of New Small Molecule Inhibitors of Uropathogenic Escherichia coli Group 2 Capsule Biogenesis” (PLoS ONE, 2014)
Like-named read-outs stand apart in the source and are kept apart here.

What was measured:
[1] = tested on: Bladder carcinoma 5637 cells; format: cell-based
Method: Testing was performed essentially as previously described, [44]. Concentration-response testing was performed over a range 0.58–300 µM in a […] plate format. Bladder carcinoma 5637 cells (ATCC HTB-9) were added to the compounds, and 72 hrs later cell viability was measured using CellTiter Glo (Promega). […] Hyamine was used as a positive cytotoxic control. All wells contained 0.5% DMSO.

[2] = tested on: K1 antigen of E. coli UTI89; test: K1 antigen dot blot; format: cell-based, Escherichia coli; conditions: 100 µM
Method: K1 antigen was detected by dot blot assays of culture extracts probed with anti-K1 H46 serum. The assay was performed as previously described. The experiment was repeated twice with similar results, and a representative dot blot is shown.

Adrenergic α1D = biological target: T1, Adrenergic α1D (Homo sapiens, UniProt P25100); format: binding; conditions: 10 µM
T1 construct: host or cells: HEK-293 cells

Adrenergic β1 = biological target: T2, Adrenergic β1 (Homo sapiens, UniProt P08588); format: binding; conditions: 10 µM
T2 construct: host or cells: CHO-K1 cells

Adrenergic β2 = biological target: T3, Adrenergic β2 (Homo sapiens, UniProt P07550); format: binding; conditions: 10 µM
T3 construct: host or cells: CHO cells

[3] = biological target: Calcium Channel L-Type, Benzothiazepine (Rattus norvegicus, UniProt P22002); format: binding; conditions: 10 µM
Dopamine D3 = biological target: T4, Dopamine D3 (Homo sapiens, UniProt P35462); format: binding; conditions: 10 µM
T4 construct: host or cells: CHO cells

Dopamine D4.2 = biological target: T5, Dopamine D4.2 (Homo sapiens, UniProt P21917, DEL265-296); format: binding; conditions: 10 µM
T5 construct: host or cells: CHO-K1 cells

[4] = biological target: T6, Epidermal Growth Factor (EGF) (Homo sapiens, UniProt P00533); test: Radioligand binding 225510; conditions: 10 µM
T6 construct: Human A431 cells; host or cells: A431 cells

GABAB1A = biological target: T7, GABAB1A (Homo sapiens, UniProt Q9UBS5); test: Radioligand binding 228610; conditions: 10 µM
T7 construct: host or cells: CHO cells

Interleukin IL-1 = biological target: T8, Interleukin IL-1 (Mus musculus, UniProt P13504); test: Radioligand binding 243520; conditions: 10 µM
T8 construct: Mouse 3T3-SWISS cells; host or cells: Swiss 3T3 mouse fibroblasts

Muscarinic M1 = biological target: T9, Muscarinic M1 (Homo sapiens, UniProt P11229); test: Radioligand binding 252610; conditions: 10 µM
T9 construct: host or cells: CHO-K1 cells

Muscarinic M2 = biological target: T10, Muscarinic M2 (Homo sapiens, UniProt P08172); test: Radioligand binding 252710; conditions: 10 µM
T10 construct: host or cells: CHO-K1 cells

[5] = biological target: Nicotinic Acetylcholine α1, Bungarotoxin (Homo sapiens, UniProt P02708+P07510+Q07001); format: binding; conditions: 10 µM
Opiate κ(OP2, KOP) = Opiate κ(OP2, KOP) (Homo sapiens, UniProt P41145); format: binding; conditions: 10 µM
[6] = biological target: T11, Platelet Activating Factor (PAF) (Homo sapiens, UniProt P25105); format: binding; conditions: 10 µM
T11 construct: Human platelets; host or cells: human platelets

Potassium Channel [KATP] = biological target: T12, Potassium Channel [KATP] (Cricetus cricetus, UniProt Q09427); format: binding, hamster; conditions: 10 µM
T12 construct: Hamster pancreatic HIT-T15 beta; host or cells: HIT-T15 hamster pancreatic beta cells

Prostanoid EP4 = biological target: T13, Prostanoid EP4 (Homo sapiens, UniProt P35408); test: Radioligand binding 268420; conditions: 10 µM
T13 construct: host or cells: Chem-1

Purinergic P2X = test: Radioligand binding 268700; design: species or system rabbit; conditions: 10 µM
Purinergic P2Y = test: Radioligand binding 268810; design: species or system rat; conditions: 10 µM
Sigma σ1 = Sigma σ1 (Homo sapiens, UniProt Q99720); format: binding; conditions: 10 µM
Tachykinin NK1 = biological target: T14, Tachykinin NK1 (Homo sapiens, UniProt P25103); test: Radioligand binding 255520; conditions: 10 µM
T14 construct: host or cells: CHO

[7] = biological target: T15, Transporter, Norepinephrine (NET) (Homo sapiens, UniProt P23975); format: binding; conditions: 10 µM
T15 construct: host or cells: MDCK

[8] = Human
[9] = biological target: Serotonin (5-Hydroxytryptamine) 5-HT3 (Homo sapiens, UniProt P46098); format: binding; design: host or cells: HEK-293; conditions: 10 µM
Bradykinin B2 = Bradykinin B2 (Homo sapiens, UniProt P30411); format: binding; design: host or cells: Chem-1 cells; conditions: 10 µM
Muscarinic M3 = Muscarinic M3 (Homo sapiens, UniProt P20309); format: binding; design: host or cells: CHO-K1 cells; conditions: 10 µM
Opiate δ1 (OP1, DOP) = Opiate δ1 (OP1, DOP) (Homo sapiens, UniProt P41143); format: binding; design: host or cells: HEK-293 cells; conditions: 10 µM

T1 sequence (P25100 whole entry): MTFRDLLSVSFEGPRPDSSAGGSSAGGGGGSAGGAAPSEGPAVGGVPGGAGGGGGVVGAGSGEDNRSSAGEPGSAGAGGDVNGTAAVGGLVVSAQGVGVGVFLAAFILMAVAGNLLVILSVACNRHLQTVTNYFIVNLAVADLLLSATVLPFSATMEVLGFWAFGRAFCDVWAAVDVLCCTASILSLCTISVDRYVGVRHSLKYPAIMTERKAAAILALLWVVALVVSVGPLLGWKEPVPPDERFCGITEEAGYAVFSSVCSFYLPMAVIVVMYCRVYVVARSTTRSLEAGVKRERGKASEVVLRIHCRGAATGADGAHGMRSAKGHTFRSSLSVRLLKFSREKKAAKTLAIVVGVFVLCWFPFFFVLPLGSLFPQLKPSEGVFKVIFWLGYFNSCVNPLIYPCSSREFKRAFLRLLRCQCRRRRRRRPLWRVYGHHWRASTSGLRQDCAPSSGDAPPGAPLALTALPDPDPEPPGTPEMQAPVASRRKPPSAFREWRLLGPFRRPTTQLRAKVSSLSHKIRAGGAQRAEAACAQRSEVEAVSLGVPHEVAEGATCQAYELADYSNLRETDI
T14 sequence (P25103 whole entry): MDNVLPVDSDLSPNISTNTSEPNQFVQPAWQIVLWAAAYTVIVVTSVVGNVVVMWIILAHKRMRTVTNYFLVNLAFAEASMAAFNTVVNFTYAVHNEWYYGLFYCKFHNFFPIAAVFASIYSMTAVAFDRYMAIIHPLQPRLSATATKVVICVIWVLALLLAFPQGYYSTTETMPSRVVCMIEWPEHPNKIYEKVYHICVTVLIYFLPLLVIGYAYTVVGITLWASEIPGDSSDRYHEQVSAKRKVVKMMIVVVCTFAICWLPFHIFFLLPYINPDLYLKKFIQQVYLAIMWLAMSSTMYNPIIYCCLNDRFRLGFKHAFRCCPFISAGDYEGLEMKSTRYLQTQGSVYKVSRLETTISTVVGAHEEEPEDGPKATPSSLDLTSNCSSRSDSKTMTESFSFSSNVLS
Chain of Serotonin (5-Hydroxytryptamine) 5-HT3 (P46098 24-478): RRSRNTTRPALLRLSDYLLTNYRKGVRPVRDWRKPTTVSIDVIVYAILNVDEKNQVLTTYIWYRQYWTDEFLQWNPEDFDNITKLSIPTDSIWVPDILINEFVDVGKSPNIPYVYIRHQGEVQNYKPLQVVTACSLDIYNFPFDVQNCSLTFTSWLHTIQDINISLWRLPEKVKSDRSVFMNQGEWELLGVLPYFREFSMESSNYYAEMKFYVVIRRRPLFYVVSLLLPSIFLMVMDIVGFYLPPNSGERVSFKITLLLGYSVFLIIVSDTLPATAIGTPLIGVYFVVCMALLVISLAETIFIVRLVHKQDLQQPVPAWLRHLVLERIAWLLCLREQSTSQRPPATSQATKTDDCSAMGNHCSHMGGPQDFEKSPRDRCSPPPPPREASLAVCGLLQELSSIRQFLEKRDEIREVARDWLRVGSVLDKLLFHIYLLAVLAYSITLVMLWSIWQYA
T2 sequence (P08588 whole entry): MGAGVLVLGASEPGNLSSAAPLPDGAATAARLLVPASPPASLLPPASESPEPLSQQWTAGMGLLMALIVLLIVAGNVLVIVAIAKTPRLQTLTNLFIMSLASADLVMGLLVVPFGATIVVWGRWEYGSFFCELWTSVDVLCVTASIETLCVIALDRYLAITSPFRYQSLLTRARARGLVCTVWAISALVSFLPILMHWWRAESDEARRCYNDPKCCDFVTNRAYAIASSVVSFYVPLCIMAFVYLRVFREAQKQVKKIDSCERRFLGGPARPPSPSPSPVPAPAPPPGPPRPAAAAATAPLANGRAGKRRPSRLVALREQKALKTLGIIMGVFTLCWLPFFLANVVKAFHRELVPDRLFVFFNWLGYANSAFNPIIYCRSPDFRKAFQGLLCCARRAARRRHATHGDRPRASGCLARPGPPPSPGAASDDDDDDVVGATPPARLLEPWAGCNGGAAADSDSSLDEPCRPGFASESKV
Chain of Calcium Channel L-Type, Benzothiazepine (P22002 whole entry): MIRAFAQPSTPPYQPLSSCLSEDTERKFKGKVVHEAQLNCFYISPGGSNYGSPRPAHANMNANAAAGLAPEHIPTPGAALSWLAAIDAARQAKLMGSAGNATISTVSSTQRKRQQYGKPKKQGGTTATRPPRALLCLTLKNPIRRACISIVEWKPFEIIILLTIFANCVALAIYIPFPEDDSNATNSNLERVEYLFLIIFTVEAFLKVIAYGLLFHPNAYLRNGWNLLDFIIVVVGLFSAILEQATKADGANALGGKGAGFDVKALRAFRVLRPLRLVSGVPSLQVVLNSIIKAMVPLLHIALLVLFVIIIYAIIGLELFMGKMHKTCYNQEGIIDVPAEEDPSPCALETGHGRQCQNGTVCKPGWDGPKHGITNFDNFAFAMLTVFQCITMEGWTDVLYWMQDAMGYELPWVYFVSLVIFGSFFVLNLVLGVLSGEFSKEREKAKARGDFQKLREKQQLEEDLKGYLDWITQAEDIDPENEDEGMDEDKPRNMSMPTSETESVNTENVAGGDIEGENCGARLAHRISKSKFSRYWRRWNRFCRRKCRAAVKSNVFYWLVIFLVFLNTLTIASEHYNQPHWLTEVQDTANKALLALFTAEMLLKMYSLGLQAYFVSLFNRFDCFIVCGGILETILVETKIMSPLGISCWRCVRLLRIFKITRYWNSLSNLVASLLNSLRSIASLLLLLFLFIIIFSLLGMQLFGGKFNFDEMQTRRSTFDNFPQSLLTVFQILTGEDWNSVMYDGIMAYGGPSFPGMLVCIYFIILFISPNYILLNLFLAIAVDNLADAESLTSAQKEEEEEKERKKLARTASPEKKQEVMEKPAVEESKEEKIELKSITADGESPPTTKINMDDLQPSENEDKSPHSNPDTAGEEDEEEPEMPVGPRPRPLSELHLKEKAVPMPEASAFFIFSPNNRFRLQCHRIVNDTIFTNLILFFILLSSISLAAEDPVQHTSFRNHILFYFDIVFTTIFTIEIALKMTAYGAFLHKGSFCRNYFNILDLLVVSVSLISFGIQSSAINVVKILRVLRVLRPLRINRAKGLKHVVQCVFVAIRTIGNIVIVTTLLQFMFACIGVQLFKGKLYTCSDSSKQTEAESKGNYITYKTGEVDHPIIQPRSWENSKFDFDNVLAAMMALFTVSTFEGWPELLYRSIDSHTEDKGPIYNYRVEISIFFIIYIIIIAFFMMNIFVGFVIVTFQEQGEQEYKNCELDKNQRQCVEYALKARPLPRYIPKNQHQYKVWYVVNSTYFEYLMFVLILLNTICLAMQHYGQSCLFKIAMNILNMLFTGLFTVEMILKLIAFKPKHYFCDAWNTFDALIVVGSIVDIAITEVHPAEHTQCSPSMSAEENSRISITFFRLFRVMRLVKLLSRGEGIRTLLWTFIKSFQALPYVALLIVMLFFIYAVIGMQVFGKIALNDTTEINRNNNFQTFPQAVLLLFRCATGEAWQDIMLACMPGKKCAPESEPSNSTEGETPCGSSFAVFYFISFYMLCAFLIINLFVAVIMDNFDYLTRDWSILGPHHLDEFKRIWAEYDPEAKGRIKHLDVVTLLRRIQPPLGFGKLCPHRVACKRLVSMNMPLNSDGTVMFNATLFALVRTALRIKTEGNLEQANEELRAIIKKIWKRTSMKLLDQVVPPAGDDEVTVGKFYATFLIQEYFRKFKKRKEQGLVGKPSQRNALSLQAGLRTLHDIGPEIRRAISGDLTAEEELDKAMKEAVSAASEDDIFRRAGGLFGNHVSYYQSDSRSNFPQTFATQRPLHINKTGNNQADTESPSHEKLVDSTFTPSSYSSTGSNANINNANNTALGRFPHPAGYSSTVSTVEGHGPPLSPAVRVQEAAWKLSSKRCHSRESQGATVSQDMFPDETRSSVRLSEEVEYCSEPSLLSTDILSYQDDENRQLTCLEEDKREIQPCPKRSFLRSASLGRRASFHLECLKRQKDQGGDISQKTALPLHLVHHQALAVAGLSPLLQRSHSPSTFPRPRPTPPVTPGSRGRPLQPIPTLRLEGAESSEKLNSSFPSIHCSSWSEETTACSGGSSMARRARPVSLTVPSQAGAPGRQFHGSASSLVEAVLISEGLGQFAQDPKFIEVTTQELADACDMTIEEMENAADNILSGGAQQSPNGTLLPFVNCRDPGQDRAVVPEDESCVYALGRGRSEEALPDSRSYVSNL
T15 sequence (P23975 whole entry): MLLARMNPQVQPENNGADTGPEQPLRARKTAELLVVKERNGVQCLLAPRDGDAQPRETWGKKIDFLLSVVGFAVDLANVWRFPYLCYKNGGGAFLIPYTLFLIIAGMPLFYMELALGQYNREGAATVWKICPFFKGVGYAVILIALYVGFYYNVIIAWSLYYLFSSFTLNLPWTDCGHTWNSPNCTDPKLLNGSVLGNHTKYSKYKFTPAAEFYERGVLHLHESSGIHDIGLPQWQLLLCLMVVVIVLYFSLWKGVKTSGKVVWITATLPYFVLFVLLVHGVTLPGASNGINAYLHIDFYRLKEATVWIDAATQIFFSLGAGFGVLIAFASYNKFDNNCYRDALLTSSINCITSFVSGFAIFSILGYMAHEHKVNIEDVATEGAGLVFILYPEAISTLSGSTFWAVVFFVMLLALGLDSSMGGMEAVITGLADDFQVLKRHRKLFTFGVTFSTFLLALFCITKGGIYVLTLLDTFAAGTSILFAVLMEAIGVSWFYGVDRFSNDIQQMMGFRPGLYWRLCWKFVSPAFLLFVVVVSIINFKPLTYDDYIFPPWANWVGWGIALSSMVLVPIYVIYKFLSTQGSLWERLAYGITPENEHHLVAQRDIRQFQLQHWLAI
T11 sequence (P25105 whole entry): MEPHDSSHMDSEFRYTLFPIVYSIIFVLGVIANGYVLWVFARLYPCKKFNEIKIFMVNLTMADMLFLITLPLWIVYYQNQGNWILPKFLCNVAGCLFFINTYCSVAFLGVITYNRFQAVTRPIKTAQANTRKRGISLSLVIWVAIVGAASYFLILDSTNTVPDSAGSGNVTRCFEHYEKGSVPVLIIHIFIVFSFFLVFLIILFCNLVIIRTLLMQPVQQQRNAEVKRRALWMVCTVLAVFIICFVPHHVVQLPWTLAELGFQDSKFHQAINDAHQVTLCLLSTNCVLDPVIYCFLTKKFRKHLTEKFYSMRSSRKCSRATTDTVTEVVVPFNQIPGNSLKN

## CCOc1ccc(-c2cc(NC(=O)c3c(F)cccc3F)c(C(=O)O)s2)cc1 [DU011]
[1]
  Selectivity (CC50/IC50): 13.3
[1]; 5637 cells, 72 hrs, ± SEM, read-out: Cytotoxicity (CC50)
  CC50: 51.6 ± 13.6 µM
[2]
  K1 reactive material, whole-cell anti-K1 dot blot: reduces K1 reactive material to levels comparable to those of genetic capsule mutants
Adrenergic α1D
  % Inh.: 7%
Adrenergic β1
  % Inh.: 3%
Adrenergic β2
  % Inh.: 8%
[3]
  % Inh.: -1%
Dopamine D3
  % Inh.: 6%
Dopamine D4.2
  % Inh.: 0%
[4]
  % Inh.: 8%
GABAB1A
  % Inh.: 7%
Interleukin IL-1
  % Inh.: 4%
Muscarinic M1
  % Inh.: 10%
Muscarinic M2
  % Inh.: 5%
[5]
  % Inh.: 8%
Opiate κ(OP2, KOP)
  % Inh.: 10%
[6]
  % Inh.: -1%
Potassium Channel [KATP]
  % Inh.: 12%
Prostanoid EP4
  % Inh.: -4%
Purinergic P2X
  % Inh.: 6%
Purinergic P2Y
  % Inh.: 1%
Sigma σ1
  % Inh.: 9%
Tachykinin NK1
  % Inh.: 7%
[7]
  % Inh.: 58%
[8]
  Hepatic Microsome Stability, percent remaining at 1 hr: 89.64%
Donor pH 5.0, acceptor pH 7.4
  PAMPA Permeability Pe: 14 ×10⁻⁶ cm/s
Donor pH 6.2, acceptor pH 7.4
  PAMPA Permeability Pe: 209 ×10⁻⁶ cm/s
Donor pH 7.4, acceptor pH 7.4
  PAMPA Permeability Pe: 52 ×10⁻⁶ cm/s
[9]
  % Inh.: -7%
Bradykinin B2
  % Inh.: 4%
Muscarinic M3
  % Inh.: -3%
Opiate δ1 (OP1, DOP)
  % Inh.: 10%
